Test system: P12-Ichikawa
Experiment: cell viability relative to DMSO control; higher = less cytotoxic
Details: 48 h
How it was run: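 Cells were incubated for 48 h at 37°C before CellTiter-Glo One luminescence was read. The cells were NOMO1 or SEM (500 cells/well) or P12-Ichikawa (1000 cells/well) leukemia cells, adapted for at least four passages in each medium and seeded in 1536-well plates (5 μl). Dosing used library compounds in DMSO applied by pin over 11 threefold points, 47 μM to 0.79 nM. Viability is the per-plate percentage of DMSO wells, with cell-free wells as background.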

[1] = HPLM + 10% dialyzed FBS, 0.000781 µM
[2] = HPLM + 10% dialyzed FBS, 0.00234 µM
[3] = HPLM + 10% dialyzed FBS, 0.00702 µM
[4] = HPLM + 10% dialyzed FBS, 0.0211 µM
[5] = HPLM + 10% dialyzed FBS, 0.0632 µM
[6] = HPLM + 10% dialyzed FBS, 0.19 µM
[7] = HPLM + 10% dialyzed FBS, 0.569 µM
[8] = HPLM + 10% dialyzed FBS, 1.71 µM
[9] = HPLM + 10% dialyzed FBS, 5.12 µM
[10] = HPLM + 10% dialyzed FBS, 15.4 µM
[11] = HPLM + 10% dialyzed FBS, 46.1 µM
[12] = RPMI 5 mM glucose + 10% FBS, 0.000781 µM
[13] = RPMI 5 mM glucose + 10% FBS, 0.00234 µM
[14] = RPMI 5 mM glucose + 10% FBS, 0.00702 µM
[15] = RPMI 5 mM glucose + 10% FBS, 0.0211 µM
[16] = RPMI 5 mM glucose + 10% FBS, 0.0632 µM
[17] = RPMI 5 mM glucose + 10% FBS, 0.19 µM
[18] = RPMI 5 mM glucose + 10% FBS, 0.569 µM
[19] = RPMI 5 mM glucose + 10% FBS, 1.71 µM
[20] = RPMI 5 mM glucose + 10% FBS, 5.12 µM
[21] = RPMI 5 mM glucose + 10% FBS, 15.4 µM
[22] = RPMI 5 mM glucose + 10% FBS, 46.1 µM
[23] = RPMI 5 mM glucose + 10% dialyzed FBS, 0.000781 µM
[24] = RPMI 5 mM glucose + 10% dialyzed FBS, 0.00234 µM
[25] = RPMI 5 mM glucose + 10% dialyzed FBS, 0.00702 µM
[26] = RPMI 5 mM glucose + 10% dialyzed FBS, 0.0211 µM
[27] = RPMI 5 mM glucose + 10% dialyzed FBS, 0.0632 µM
[28] = RPMI 5 mM glucose + 10% dialyzed FBS, 0.19 µM
[29] = RPMI 5 mM glucose + 10% dialyzed FBS, 0.569 µM
[30] = RPMI 5 mM glucose + 10% dialyzed FBS, 1.71 µM
[31] = RPMI 5 mM glucose + 10% dialyzed FBS, 5.12 µM
[32] = RPMI 5 mM glucose + 10% dialyzed FBS, 15.4 µM
[33] = RPMI 5 mM glucose + 10% dialyzed FBS, 46.1 µM

| Compound | cell viability [1] [%] | cell viability [2] [%] | cell viability [3] [%] | cell viability [4] [%] | cell viability [5] [%] | cell viability [6] [%] | cell viability [7] [%] | cell viability [8] [%] | cell viability [9] [%] | cell viability [10] [%] | cell viability [11] [%] | cell viability [12] [%] | cell viability [13] [%] | cell viability [14] [%] | cell viability [15] [%] | cell viability [16] [%] | cell viability [17] [%] | cell viability [18] [%] | cell viability [19] [%] | cell viability [20] [%] | cell viability [21] [%] | cell viability [22] [%] | cell viability [23] [%] | cell viability [24] [%] | cell viability [25] [%] | cell viability [26] [%] | cell viability [27] [%] | cell viability [28] [%] | cell viability [29] [%] | cell viability [30] [%] | cell viability [31] [%] | cell viability [32] [%] | cell viability [33] [%] |
| --- | --- | --- | --- | --- | --- | --- | --- | --- | --- | --- | --- | --- | --- | --- | --- | --- | --- | --- | --- | --- | --- | --- | --- | --- | --- | --- | --- | --- | --- | --- | --- | --- | --- |
| CC(C)C1=C(O)C=C(O)C(=C1)C/2=N/NC(=O)N2C3=CC4=C(C=C3)[N](C)C=C4 | 119 | 118 | 118 | 117 | 116 | 78.1 | 51.7 | 54.2 | 49 | 47.4 | 45.3 | 119 | 123 | 125 | 112 | 110 | 51 | 41 | 41.3 | 41.8 | 41.6 | 38.6 | 112 | 123 | 127 | 122 | 116 | 48.7 | 45.6 | 42.6 | 44.4 | 41.5 | 39 |
| O=C(Nc1cc2cc[nH]c2cn1)c1ccccc1 | 95 | 90.7 | 109 | 112 | 113 | 109 | 111 | 106 | 5.06 | 1.54 | -0.599 | 93.1 | 113 | 111 | 114 | 119 | 130 | 109 | 104 | 90.4 | 45.8 | 1.1 | 79.4 | 101 | 102 | 104 | 99.7 | 102 | 103 | 101 | 58.2 | 7.54 | 1.18 |
| C[N]1C=C(C2=C1C=CC=C2)\C3=C(\C(=O)NC3=O)C4=C5CC(CN)CC[N]5C6=C4C=CC=C6 (centres undefined) | 103 | 105 | 106 | 113 | 98 | 116 | 110 | 108 | 106 | 84.2 | 60.3 | 97.2 | 108 | 101 | 111 | 90.5 | 117 | 120 | 115 | 94.6 | 66.2 | 45 | 119 | 116 | 119 | 113 | 113 | 129 | 129 | 119 | 109 | 83.4 | 45.7 |
